# According to patent US11351130B2, “Prevention and reversal of inflammation induced DNA damage” (Indiana University Research and Technology Corporation, priority 2017, dated 2022):
# Assays:
# [1] = test system: neuronal cultures derived from DRG; experiment: pH2A.X immunoblotting in DRG neuronal cultures (Example 1); type: cell-based, rat
# Experimental: (§1) Dorsal root ganglia (DRG) were dissected from all spinal levels of adult male (150-175 g) Sprague-Dawley rats (Envigo, Indianapolis, Ind.) and the cells were dissociated as previously described (Kelley et al., 2014). Briefly, the rats were euthanized by CO2 asphyxiation. DRGs were transferred into collagenase solution (1 mg/ml) and incubated for 1 hour at 37° C. The digested DRGs were then rinsed with growth medium, centrifuged and dissociated by mechanical agitation. Approximately 30,000 cells were plated into each well of 12-well culture plates. All culture dishes were precoated with poly-D-lysine and laminin. Cells were maintained in F-12 media supplemented with 10% horse serum, 2 mM glutamine, 100 μg/ml Normocin, 50 μg/ml penicillin, 50 μg/ml streptomycin, 50 μM 5-fluoro-2′-deoxyuridine, 150 μM uridine, and 30 ng/ml of NGF in 3% CO2 at 37° C. Growth medium was changed every other day.
# (§2) Small interfering RNAs to APE1 (APE1siRNA) and scrambled siRNA (SCsiRNA) controls were used to decrease APE1 protein expression in sensory neuronal cell cultures and as controls, respectively, as described previously (Vasko et al., 2005, Jiang et al., 2008a). On day 3 in culture, the growth media was replaced with 0.5 ml of Opti-MEM 1 media containing 100 nM of APE1siRNA (5′-[…]-3′ (SEQ ID NO:1)) or SCsiRNA (5′-[…]-3′(SEQ ID NO:2)); (Vasko et al., 2005)) and 10 μl of the transfecting reagent, Neuroporter. On the next day, 0.5 ml of the growth media without antibiotics was added to each well, and after an additional 24 hours the media containing siRNA was replaced with normal growth media.
# (§3) Lentiviral constructs containing (1) the CMV promoter, HA-tagged APE1, IRES, and enhanced green fluorescent protein (EGFP); or (2) CMV, IRES, and EGFP were developed. DNA sequencing confirmed the constructs in the pLenti6-R4R2-V5 plasmid containing WT-, C65-, or 226+177-APE1-IRES-EGFP. For lentiviral infections, DRG cells were cultured 5 days before 150 pfu/cell of the lentivirus was added to the media. Two days later, the virus was removed and the cells grown an additional 5 days in regular media.
# Tissues or cells were harvested, lysed in RIPA buffer (Santa Cruz Biotechnology; Santa Cruz, Calif., USA), sonicated, and cleared of cellular debris by centrifuging at 4000 RPM for 2 minutes. Protein was quantified using Lowry assay, and electrophoresed in a 12% SDS-polyacrylamide gel. After electrophoresis, proteins were transferred to a PVDF membrane, and blocked with Tris-buffered saline containing 0.1% Tween-20 (TBST) and 5% nonfat dry milk for 1 hour at room temperature while gently agitating. Mouse monoclonal antihuman Ape1 antibodies (1:1000), mouse monoclonal anti-phospho H2AX antibodies (1:1000), mouse monoclonal anti-vinculin antibody (1:1000), and anti-Hemagglutinin (HA) antibody were added to the blocking solution and incubated for 2 hours at room temperature while gently agitating. Antibody binding was detected following appropriate secondary antibody methods using chemiluminescence. The density of the bands was measured using Quantity One software from Bio-Rad (Hercules, Calif.) and data expressed as density normalized to vinculin.
# Ref-1/APE1 = biological target: T1, Ref-1/APE1 (Rattus norvegicus, UniProt P43138); experiment: Ref-1/APE1 endonuclease activity in isolated sensory neurons; type: cell-based
# T1 construct: When isolated sensory neurons were exposed to APX3330; endogenous in cells; host or cells: isolated sensory neurons
# T1 sequence (P43138 whole entry): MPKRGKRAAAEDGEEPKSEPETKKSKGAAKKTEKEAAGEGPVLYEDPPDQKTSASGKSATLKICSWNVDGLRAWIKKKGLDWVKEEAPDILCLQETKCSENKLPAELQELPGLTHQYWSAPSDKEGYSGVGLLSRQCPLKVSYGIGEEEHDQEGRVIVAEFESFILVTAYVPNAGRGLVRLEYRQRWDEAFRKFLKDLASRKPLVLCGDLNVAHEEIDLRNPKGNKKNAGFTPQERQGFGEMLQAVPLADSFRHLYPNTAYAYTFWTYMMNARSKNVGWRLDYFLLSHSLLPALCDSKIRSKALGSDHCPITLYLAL
# DRG = experiment: Cisplatin ± APX3330 in neuroblastoma tumor-bearing mice; type: in vivo
# From the text: Neuroblastoma cells were implanted subcutaneously into the right flanks of 6-wk old male NSG mice and allowed to proliferate until tumor volumes ≥150 mm^3. Mice were then randomized for treatment with cisplatin±APX3330 treatment.
# Pharmacokinetics (PK) = conditions: in vivo
# Experimental: (§4) PK studies were performed in the IU Simon Cancer Center Clinical Pharmacology Analytical Core (CPAC), as previously described for E3330 (Fishel et al., 2011) and standards for the compounds used. P450 metabolism studies using human microsomes were also performed in CPAC directed by Dr. David Jones.
# [2] = P450 metabolism analysis using human microsomes; type: in vitro ADME; conditions: human
# Experimental: as §4
# [3] = test system: neuronal cultures derived from DRG; experiment: CGRP release from DRG neuronal cultures (Example 1); type: cell-based, rat
# Experimental: as §1, §2, §3
# After neuronal cultures were treated with the appropriate drugs, the cultures were washed once with HEPES buffer consisting of (in mM) 25 HEPES, 135 NaCl, 3.5 KCl, 2.5 CaCl2, 1 MgCl2, 3.3 D-glucose, and 0.1% bovine serum albumin, pH 7.4 and maintained at 37° C. They were then incubated for successive 10-minute intervals with 0.4 ml of HEPES buffer alone (basal release), with buffer containing 30 nM capsaicin, then with buffer alone (to assess return to basal release). After each incubation, the buffer was removed and the amount of immunoreactive CGRP in each sample was measured using radioimmunoassay as previously described (Chen et al., 1996). After the release experiment, the cells in each well were in 0.4 ml of 0.1 M HCl10 minutes and an aliquot taken to measure total CGRP content in the cultures using radioimmunoassay. Total content (fmol/well) was calculated by adding the total amount released in all incubations to the amount measured in the cells. The release data is calculated as fmol released/well/10 minutes.
smiles,measurement,setting,value
CCCCCCCCC/C(=C\C1=C(C)C(=O)C(OC)=C(OC)C1=O)C(=O)O [APX3330],effect on LPS induction of pH2A.X,"[1]; E3330 20 μM pretreatment, LPS 3 μg/ml 24 hours, SCsiRNA- and APE1siRNA-treated cultures",prevented the induction of pH2A.X
same,effect on MCP-1 induction of pH2A.X,"[1]; E3330, SCsiRNA or APE1siRNA cultures, MCP-1 0.3 μg/ml 24 hours",prevented the induction of pH2A.X by MCP-1
same,Ref-1/APE1 endonuclease activity,Ref-1/APE1,concentration-dependent increase in Ref-1/APE1 endonuclease activity
same,cisplatin or oxaliplatin's tumor-killing efficacy,DRG; in vivo (data not shown),did not affect cisplatin or oxaliplatin's tumor-killing efficacy in vivo
same,oxidative DNA damage in DRG neurons,DRG; in vivo (data not shown),protects DRG neurons from oxidative DNA damage
same,neurotoxicity induced by systemic administration of cisplatin,DRG; tumor-bearing mice,attenuated neurotoxicity
same,half-life,Pharmacokinetics (PK),3.6 h
same,half-life,[2],0.333 h
same,effect on MCP-1-induced change in CGRP release,"[3]; E3330, MCP-1 0.3 μg/ml",prevented the change in CGRP release induced by MCP-1 exposure
same,stimulated release of CGRP in LPS-treated cultures,"[3]; SCsiRNA-treated cultures, LPS 3 μg/ml 24 hours plus APE1 expression or E3330",9.7±0.8 % of total content
